# Test results from ChEMBL document CHEMBL3616393, “Recent progress on MAP kinase pathway inhibitors” (Bioorg Med Chem Lett, 2015).
# Tests used:
# [1] = Effective half life in patient; type: ADME, organism-based; conditions: human, in vivo; read-out: t1/2eff
# [2] = Plasma half life in po dosed Sprague-Dawley rat; type: ADME, organism-based
# Homo sapiens [3] = assay: In vivo inhibition of B-RAF in inhibitor-pretreated patient relative to control; type: functional
# Homo sapiens [4] = assay: Toxicity in patient administered daily; type: organism-based; conditions: in vivo
# Homo sapiens [5] = assay: In vivo inhibition of B-RAF in naive patient relative to control; type: functional
# [6] = molecular target: Serine/threonine-protein kinase B-raf (Homo sapiens) (UniProt P15056); assay: Binding affinity to B-RAF (unknown origin) assessed as dissociation half life
# Serine/threonine-protein kinase B-raf (Homo sapiens), sequence (P15056 whole entry): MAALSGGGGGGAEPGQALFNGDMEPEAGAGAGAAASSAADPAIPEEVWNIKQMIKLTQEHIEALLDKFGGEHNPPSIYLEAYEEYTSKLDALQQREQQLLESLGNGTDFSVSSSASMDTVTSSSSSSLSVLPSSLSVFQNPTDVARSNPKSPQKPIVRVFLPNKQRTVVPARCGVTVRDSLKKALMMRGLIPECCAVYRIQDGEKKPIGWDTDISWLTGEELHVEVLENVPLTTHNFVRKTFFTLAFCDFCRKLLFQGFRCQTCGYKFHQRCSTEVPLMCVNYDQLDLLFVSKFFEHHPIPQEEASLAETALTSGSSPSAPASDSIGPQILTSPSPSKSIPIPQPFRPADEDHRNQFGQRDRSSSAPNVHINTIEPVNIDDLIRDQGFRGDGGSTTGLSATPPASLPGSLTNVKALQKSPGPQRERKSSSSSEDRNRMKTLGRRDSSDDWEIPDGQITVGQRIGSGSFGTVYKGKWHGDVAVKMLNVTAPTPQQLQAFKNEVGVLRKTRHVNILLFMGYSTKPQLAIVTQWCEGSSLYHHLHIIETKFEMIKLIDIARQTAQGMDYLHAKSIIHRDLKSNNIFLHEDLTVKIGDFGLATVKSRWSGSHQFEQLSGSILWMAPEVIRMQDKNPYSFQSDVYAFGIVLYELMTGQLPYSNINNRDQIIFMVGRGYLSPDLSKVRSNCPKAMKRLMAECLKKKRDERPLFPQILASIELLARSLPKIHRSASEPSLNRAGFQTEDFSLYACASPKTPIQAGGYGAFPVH
# [7] = molecular target: T1, Mitogen-activated protein kinase 3 (Homo sapiens, UniProt P27361); assay: Competitive inhibition of ERK1 (unknown origin) in presence of ATP
# T1 sequence (P27361 whole entry): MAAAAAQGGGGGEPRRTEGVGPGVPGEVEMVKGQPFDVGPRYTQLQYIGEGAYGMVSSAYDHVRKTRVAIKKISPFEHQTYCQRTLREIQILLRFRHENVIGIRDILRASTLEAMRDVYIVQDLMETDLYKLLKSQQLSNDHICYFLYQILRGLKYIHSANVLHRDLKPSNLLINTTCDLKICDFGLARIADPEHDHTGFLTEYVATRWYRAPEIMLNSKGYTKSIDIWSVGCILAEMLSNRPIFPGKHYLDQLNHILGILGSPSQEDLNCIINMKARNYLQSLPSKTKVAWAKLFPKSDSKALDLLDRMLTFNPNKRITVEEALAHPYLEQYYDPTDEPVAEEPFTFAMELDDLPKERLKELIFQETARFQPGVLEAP
# [8] = molecular target: T1, Mitogen-activated protein kinase 3; assay: Inhibition of ERK1 (unknown origin) after 45 mins by IMAP assay
structure (smiles),measurement,setting,value
CC(=O)Nc1cccc(-n2c(=O)n(C3CC3)c(=O)c3c(Nc4ccc(I)cc4F)n(C)c(=O)c(C)c32)c1 [TRAMETINIB],half-life,[1],> 40 h
same,half-life,[2],> 30 h
COC(=O)N[C@@H](C)CNc1nccc(-c2cn(C(C)C)nc2-c2cc(Cl)cc(NS(C)(=O)=O)c2F)n1 [ENCORAFENIB],inhibition (INH),Homo sapiens [3],11%
same,MTD,Homo sapiens [4],600 mg
same,inhibition (INH),Homo sapiens [5],58%
same,T1/2,[6],> 24 h
Cn1cnc2c(F)c(Nc3ccc(Br)cc3F)c(C(=O)NOCCO)cc21 [BINIMETINIB],inhibition (INH),Homo sapiens [3],18%
same,inhibition (INH),Homo sapiens [5],88%
CC(C)Nc1cc(-c2c[nH]c(C(=O)N[C@H](CO)c3cccc(Cl)c3)c2)c(Cl)cn1,INH,[7],300 pM
O=C(Nc1ccc2[nH]nc(-c3ccncc3)c2c1)[C@@H]1CCN(CC(=O)N2CCN(c3ccc(-c4ncccn4)cc3)CC2)C1,IC50,[8],4 nM
